# Results as given in US12145947B2, “Pyrimidine based modulators and uses thereof” (Quanta Therapeutics, Inc., priority 2022, dated 2024).
# pIC50: −log10 of the molar value.
# What was measured:
# Assay type in all cases: binding
# w.t.KRAS/RAF1 = target: T1, w.t.KRAS/RAF1 (Homo sapiens, UniProt P01116); experiment: Protein-protein interaction (PPI) HTRF assay w.t.KRAS/RAF1; settings: Table 3; wtKRAS/RAF1
# T1 construct: His6-MBP (N, cleaved yes); made in house; host or cells: E. coli
# Description: (§1) Biotinylated KRAS wt and KRAS G12DNV proteins were expressed and purified in conditions similar to those previously reported (Tran, et al., 2021) (Zhang, et al., 2020). Briefly, KRAS (1-169) proteins were expressed in E. coli at 18° C. with an upstream TEV cleavage site (ENLFYQS (SEQ ID NO: 6)) followed an Avi tag sequence ([…] (SEQ ID NO: 7)). KRAS expression constructs contained both a His6 (SEQ ID NO: 8) and maltose-binding protein (MBP) tags at the N-terminus for Ni-NTA column purification prior to overnight TEV cleavage and MBP column purification. The avi-tagged NRAS expression construct contained both a His6 tag (SEQ ID NO: 8) and SUMO cleavage sige at the N-terminus for Ni-NTA column purification followed by His-ULPi digestion overnight. […]
# (§2) When RAS proteins are in the active GTP-bound conformation, they bind the effector protein RAF1 at the N-terminus Ras-binding domain (RBD, residues 52-131) (Tran, et al., 2021). Homogenous time resolved fluorescence (HTRF) was used to monitor the interaction between wt or mutant KRAS and RAF1 or wt NRAS and RAFT. […] The intensity of the fluorescence signal emitted is proportional to binding between the two proteins. […] The fluorescence signal emitted was monitored at 665 nm and 615 nm using an Envision multimode plate reader. […]
# w.t. NRAS/RAF1 = target: T2, w.t. NRAS/RAF1 (Homo sapiens, UniProt P01111); experiment: Protein-protein interaction (PPI) HTRF assay NRAS/RAF1; settings: Table 3; wtNRAS/RAF1
# T2 construct: His6-SUMO (N, cleaved yes); made in house; host or cells: E. coli (printed for KRAS and RAF1)
# Description: as §1, §2
# KRAS G12V/RAF1 = target: T3, KRAS G12V/RAF1 (Homo sapiens, UniProt P01116, G12V); experiment: Protein-protein interaction (PPI) HTRF assay KRAS G12V/RAF1; settings: Table 3; KRASG12V/RAF1
# T3 construct: His6-MBP (N, cleaved yes); made in house; host or cells: E. coli
# Description: as §1, §2
# T2 sequence (P01111 with tags, fused parts or gaps): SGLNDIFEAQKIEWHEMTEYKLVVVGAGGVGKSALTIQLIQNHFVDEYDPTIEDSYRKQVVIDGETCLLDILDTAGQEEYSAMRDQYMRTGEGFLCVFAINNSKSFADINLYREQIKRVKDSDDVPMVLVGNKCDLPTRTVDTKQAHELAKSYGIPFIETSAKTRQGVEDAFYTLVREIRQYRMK
# T3 sequence (P01116 with tags, fused parts or gaps isoform P01116-2 G12V): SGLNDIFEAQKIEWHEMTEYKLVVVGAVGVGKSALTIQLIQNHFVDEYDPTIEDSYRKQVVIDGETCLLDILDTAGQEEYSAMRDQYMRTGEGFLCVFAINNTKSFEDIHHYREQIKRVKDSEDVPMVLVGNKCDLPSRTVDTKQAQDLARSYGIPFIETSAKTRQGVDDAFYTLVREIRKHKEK
# T1 sequence (P01116 with tags, fused parts or gaps isoform P01116-2): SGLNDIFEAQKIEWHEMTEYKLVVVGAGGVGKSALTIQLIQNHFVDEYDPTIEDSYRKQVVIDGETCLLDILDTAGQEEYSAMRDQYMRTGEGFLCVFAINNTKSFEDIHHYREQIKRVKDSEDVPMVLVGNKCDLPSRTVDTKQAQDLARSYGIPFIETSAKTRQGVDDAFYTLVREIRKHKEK
structure (smiles),measurement,setting,value
"CN(C)C(=O)c1nn2c(c1Cl)CN(c1nc(OC[C@@]34CCCN3C[C@H](F)C4)nc(N3CC4(CCc5sc(N)c(C#N)c54)C3)c1C#N)CCC2 [Compound 2, 5-[6-(2-amino-3-cyano-spiro[5,6-dihydrocyclopenta[b]thiophene-4,3′-azetidine]-1′-yl)-5-cyano-2-[[(2R,8S)-2-fluoro-1,2,3,5,6,7-hexahydropyrrolizin-8-yl]methoxy]pyrimidin-4-yl]-3-chloro-N,N-dimethyl-4,6,7,8-tetrahydropyrazolo[1,5-a][1,4]diazepine-2-carboxamide]",pIC50,w.t.KRAS/RAF1,5.00 to 6.00
same,pIC50,w.t. NRAS/RAF1,< 4.00
same,pIC50,KRAS G12V/RAF1,5.00 to 6.00
"CN(C)C(=O)c1nn2c(c1Cl)CN(c1nc(OC[C@@]34CCCN3C[C@H](F)C4)nc(N3CC4(CCCc5sc(N)c(C#N)c54)C3)c1C#N)CCC2 [Compound 3, 5-[6-(2-amino-3-cyano-spiro[6,7-dihydro-5H-benzothiophene-4,3′-azetidine]-1′-yl)-5-cyano-2-[[(2R,8S)-2-fluoro-1,2,3,5,6,7-hexahydropyrrolizin-8-yl]methoxy]pyrimidin-4-yl]-3-chloro-N,N-dimethyl-4,6,7,8-tetrahydropyrazolo[1,5-a][1,4]diazepine-2-carboxamide]",pIC50,w.t. NRAS/RAF1,< 4.00
same,pIC50,KRAS G12V/RAF1,4.00 to 5.00
